Results: patent US20020107302A1, “Monomeric dye inkjet printing ink formulations for invisible marking / identification” (priority 2000, published 2002)

Experiment: Solubility or dispersibility of monomeric dye in vehicle systems
[1] = 50/50 acetone/water, 600 ppm dye
[2] = Methyl ethyl ketone, 600 ppm dye
[3] = Water with 1% ammonium hydroxide, 600 ppm dye
[4] = Water, 0.06% (by weight) or 600 ppm dye

Measured: Solubility or Dispersibility

COC(=O)c1cc([O][Al]2[n]3c4c5ccccc5c3/N=C3N=C(/N=c5/c6ccccc6/c([n]52)=N/C2=NC(=N\4)/c4ccccc42)c2ccccc2\3)cc(C(=O)OC)c1 [Dye II, Aluminum phthalocyanine(3,5-dicarbo-methoxyphenoxide)]
Partially Soluble: [1] | Acetone, 600 ppm dye | Ethyl acetate, 600 ppm dye | [2]
Insoluble: Methyl acetate, 600 ppm dye | [3] | [4]
Soluble: Ethanol, 600 ppm dye | Propylene glycol, 600 ppm dye

CCCCC(CC)COC(=O)c1ccc(Oc2cccc3c2-c2nc-3nc3[nH]c(nc4nc(nc5[nH]c(n2)c2cccc(Oc6ccc(C(=O)OCC(CC)CCCC)cc6)c52)-c2cccc(Oc5ccc(C(=O)OCC(CC)CCCC)cc5)c2-4)c2cccc(Oc4ccc(C(=O)OCC(CC)CCCC)cc4)c32)cc1 [Dye III, 1(4),8(11),15(18),22(2S)-tetraks((4-(2-ethylhexoxy)carbonyl)phenoxy)phthalocyanine]
Insoluble: [1] | Ethanol, 600 ppm dye | Propylene glycol, 600 ppm dye | [3] | [4]
Partially Soluble: Acetone, 600 ppm dye | [2]
Soluble: Ethyl acetate, 600 ppm dye | Methyl acetate, 600 ppm dye

CN1C(=CC=CC=CC=CC2=[N+](C)c3ccc4ccccc4c3C2(C)C)C(C)(C)c2c1ccc1ccccc21.[O-][Cl+3]([O-])([O-])[O-] [Dye IV, 1,1,3,3,3,3-Hexamethyl-4,4,5,5-dibenzo-2,2-indotricarbocyanine perchlorate]
Soluble: [1] | Acetone, 600 ppm dye | Ethanol, 600 ppm dye | Ethyl acetate, 600 ppm dye | Methyl acetate, 600 ppm dye | [2] | Propylene glycol, 600 ppm dye
Insoluble: [3] | [4]

CCN1C(=CCC2CCC(C=CC3Sc4ccc(Cl)cc4N3CC)=C2N(c2ccccc2)c2ccccc2)Sc2ccc(Cl)cc21 (centres unmarked) [Dye V, 5,5-Dichloro-11-(diphenylamino)-3,3-diethyl-10,12-ethylenethiatri-carbocyanine perchlorate]
Partially Soluble: Methyl acetate, 600 ppm dye
Soluble: [1] | Acetone, 600 ppm dye | Ethanol, 600 ppm dye | [2]
Insoluble: Ethyl acetate, 600 ppm dye | [3] | [4]
